“Also recorded” adds a separate entry of the source. Read-outs that look alike come from different tables or passages of the source.
What was measured:
[1] = system: gram-positive and gram-negative bacteria; assay: Antibacterial activity (general statement); assay type: cell-based; conditions: in words
[2] = Cytotoxic / cytostatic activity (general statement); conditions: in words
E. coli 1507 E = assay: Minimal inhibitory concentration, broth-dilution test; assay type: cell-based; conditions: Escherichia coli, read-out: Minimal inhibitory concentration
Description: (§1) The antibacterial activity of 31668P and 31668U as Minimum Inhibitory Concentration values required to inhibit the growth of various bacteria are shown in Table 1.
(§2) Minimal inhibitory concentrations of the anitbiotics 31668P and
(§3) 31668U determined by the broth-dilution tests against selected
(§4) strains of bacteria (microgram per ml)

Staph. aureus 503 = assay: as above; assay type: cell-based; conditions: Staphylococcus aureus
Description: as §1, §2, §3, §4

Staph. aureus SG 511 = assay: as above; assay type: cell-based; conditions: Staphylococcus aureus, SG511
Description: as §1, §2, §3, §4

Pseud. aeruginosa 1592 E = assay: as above; assay type: cell-based; conditions: Pseudomonas aeruginosa
Description: as §1, §2, §3, §4

Staph. aureus 285 = assay: as above; assay type: cell-based; conditions: Staphylococcus aureus
Description: as §1, §2, §3, §4

Pseud. aeruginosa 1771 = assay: as above; assay type: cell-based; conditions: Pseudomonas aeruginosa
Description: as §1, §2, §3, §4

Klebs. spec. 1522 E = assay: as above; assay type: cell-based; conditions: read-out: Minimal inhibitory concentration
Description: as §1, §2, §3, §4

Strept. pyogenes 308 A = assay: as above; assay type: cell-based; conditions: Streptococcus pyogenes
Description: as §1, §2, §3, §4

Enterobact. cloacae P 99 = assay: as above; assay type: cell-based; conditions: read-out: Minimal inhibitory concentration
Description: as §1, §2, §3, §4

[3] = system: Enterobact. cloacae 1321 E; assay: as above; assay type: cell-based
Description: as §1, §2, §3, §4

Strept. faecium D = assay: as above; assay type: cell-based; conditions: Enterococcus faecium
Description: as §1, §2, §3, §4

Klebs. spec. 1082E (K-1) = assay: as above; assay type: cell-based
Description: as §1, §2, §3, §4

E. coli 078 = assay: as above; assay type: cell-based; conditions: Escherichia coli
Description: as §1, §2, §3, §4

Saim. typhimurium = assay: as above; assay type: cell-based
Description: as §1, §2, §3, §4

[4] = system: Pseud. aeruginosa ATCC 9027; assay: as above; assay type: cell-based; conditions: Pseudomonas aeruginosa, ATCC9027
Description: as §1, §2, §3, §4

E. coli DC 2 = assay: as above; assay type: cell-based; conditions: Escherichia coli, DC2
Description: as §1, §2, §3, §4

E. coli DC 0 = assay: as above; assay type: cell-based; conditions: Escherichia coli, DC0
Description: as §1, §2, §3, §4

Strept. pyogenes 77 A = assay: as above; assay type: cell-based; conditions: Streptococcus pyogenes
Description: as §1, §2, §3, §4

E. coli TEM = assay: as above; assay type: cell-based; conditions: Escherichia coli, read-out: Minimal inhibitory concentration
Description: as §1, §2, §3, §4

Pseud. aeruginosa 1771 M = assay: as above; assay type: cell-based; conditions: Pseudomonas aeruginosa
Description: as §1, §2, §3, §4

SMILES | antibacterial / antibiotic activity [1] | cytotoxic activity / cytostatic effect [2] | MIC (Staph. aureus 503) [ng/mL] | MIC (Staph. aureus SG 511) [ng/mL] | MIC (Pseud. aeruginosa 1592 E) [µg/mL] | MIC (Staph. aureus 285) [ng/mL] | MIC (Pseud. aeruginosa 1771) [µg/mL] | MIC (Strept. pyogenes 308 A) [ng/mL] | MIC (Enterobact. cloacae P 99) [µg/mL] | MIC [3] [µg/mL] | MIC (Strept. faecium D) [µg/mL] | MIC (Klebs. spec. 1082E (K-1)) [µg/mL] | MIC (E. coli 078) [µg/mL] | MIC (Saim. typhimurium) [µg/mL] | MIC [4] [µg/mL] | MIC (E. coli DC 2) [µg/mL] | MIC (E. coli DC 0) [µg/mL] | MIC (Strept. pyogenes 77 A) [ng/mL] | MIC (E. coli TEM) [µg/mL] | MIC (Pseud. aeruginosa 1771 M) [µg/mL] | also measured
COC1=C(C)C(=O)C2=C(C1=O)C(CO)[N+]1=CC3CC4C(C1C2N1CCOC41)N3C (centres unmarked) [Compound 31668U] | active against a large number of both gram-positive and gram-negative bacteria; also recorded: have an antibiotic activity | cytotoxic activity; also recorded: cytostatic effect | < 2 | < 2 | 6.25 | < 2 | 12.5 | < 2 | 1.56 | 0.195 | 0.195 | 0.781 | 0.195 | 3.13 | 6.25 | 0.781 | 6.25 | < 2 | 1.56 | 1.56 | MIC (E. coli 1507 E; E. coli 1507 E): 3.13 µg/mL; MIC (Klebs. spec. 1522 E): 1.56 µg/mL
COc1c(C)c(O)c2c(c1O)C(CO)[N+]1=CC3CC4C(C1C2N1CCOC41)N3C (centres unmarked) [Compound 31668P] | active against a large number of both gram-positive and gram-negative bacteria; also recorded: have an antibiotic activity | cytotoxic activity; also recorded: cytostatic effect | < 2 | < 2 | 0.781 | < 2 | 1.56 | < 2 | 0.195 | 0.098 | 0.025 | 0.391 | 0.049 | 0.391 | 0.781 | 0.195 | 0.781 | < 2 | 0.195 | 0.391 | MIC (E. coli 1507 E; 1507E): 0.195 µg/mL; MIC (Klebs. spec. 1522 E; Klebs. spec. 1522 E): 0.391 µg/mL

From patent publication US5459141A, “Compounds 31668P and 31668U, a process for their production and their use” (Hoechst Aktiengesellschaft, priority 1992, dated 1995)
